Results on 19 compounds are retold here after patent US7709471B2, “Compounds” (AstraZeneca AB, priority 2006, dated 2010).

SMILES strings stand for the structures.

For one test, the system named is human colon tumour cell line HT29. Put plainly: Cellular Assay (phosphohistone H3 Ser10 mitotic marker, HT29). It counts as cell-based. Particulars: HT-29, 24 h, HT29 cells, read-out: IC50 (cellular assay, phosphohistone H3).
Experimental: Chromosome condensation in mitosis is accompanied by phosphorylation of histone H3 on serine 10.
After 24 hours, cells were fixed in 3.7% (v/v) formaldehyde then permeabilised and blocked for 10 minutes in 100 μl 0.5% (v/v) Triton X-100, 1% (w/v) bovine serum albumin (BSA) in phosphate buffered saline (PBS). […] The raw assay data were analysed by non-linear regression analysis and used to determine an IC50 value for each compound.
Regarding `COc1cc(C(=O)NC2CCN(C)C3CCCCC23)ccc1Nc1ncc2c(n1)N(C1CCCC1)CCC(=O)N2C` (single isomer, unassigned) [Example 342, 4-[(2-cyclopentyl-6-methyl-5-oxo-2,6,9,11-tetrazabicyclo[5.4.0]undeca-7,9,11-trien-10-yl)amino]-3-methoxy-N-(1-methyl-3,4,4a,5,6,7,8,8a-octahydro-2H-quinolin-4-yl)benzamide], the IC50 (as a rule, the midpoint of a concentration-inhibition curve) is below 0.3 µM.
Same read-out and setting: to `CN1C(=O)CCN(C2CCCC2)c2nc(Nc3cccc(C(N)=O)c3)ncc21` [Example 167, 3-[(6-cyclopentyl-2-methyl-3-oxo-2,6,8,10-tetrazabicyclo[5.4.0]undeca-8,10,12-trien-9-yl)amino]benzamide] belongs below 30 µM.
With `CN1C(=O)CCN(C2CCCC2)c2nc(Nc3cccc(-c4ccccc4)c3)ncc21` [Example 171, 6-cyclopentyl-2-methyl-9-[(3-phenylphenyl)amino]-2,6,8,10-tetrazabicyclo[5.4.0]undeca-8,10,12-trien-3-one], the IC50 was below 30 µM.
Still for that read-out and setting: next, `COc1cc(C(=O)O)ccc1Nc1ncc2c(n1)N(C1CCCC1)CC(C)(C)C(=O)N2C` [Example 242, 4-[(2-cyclopentyl-4,4,6-trimethyl-5-oxo-2,6,9,11-tetrazabicyclo[5.4.0]undeca-7,9,11-trien-10-yl)amino]-3-methoxy-benzoic acid]: below 1 µM.
On to `C#CCN1CCC(=O)N(C)c2cnc(Nc3ccc(C(=O)NC4CCN(C)CC4)cc3OC)nc21` [Example 271, 3-methoxy-4-[(6-methyl-5-oxo-2-prop-2-ynyl-2,6,9,11-tetrazabicyclo[5.4.0]undeca-7,9,11-trien-10-yl)amino]-N-(1-methyl-4-piperidyl)benzamide], for which the IC50 is below 30 µM.
The same measure, in the same setting: next, `COc1cc(C(=O)NC2C[C@H]3CCC[C@@H](C2)N3C)ccc1Nc1ncc2c(n1)N(C1CCCC1)CC(C)(C)C(=O)N2` (stereo partly drawn) [Example 278, 4-[(2-cyclopentyl-4,4-dimethyl-5-oxo-2,6,9,11-tetrazabicyclo[5.4.0]undeca-7,9,11-trien-10-yl)amino]-3-methoxy-N-[(1S,5R)-9-methyl-9-azabicyclo[3.3.1]non-7-yl]benzamide]: below 1 µM; `CCOc1cc(C(=O)N[C@@H]2CCN(C)C2)ccc1Nc1ncc2c(n1)N(C(C)C)CCC(=O)N2C` [Example 284, 3-ethoxy-4-[(6-methyl-5-oxo-2-propan-2-yl-2,6,9,11-tetrazabicyclo[5.4.0]undeca-7,9,11-trien-10-yl)amino]-N-[(3R)-1-methylpyrrolidin-3-yl]benzamide]: below 30 µM; `CCOc1cc(C(=O)NC2CCC(N(C)C)CC2)ccc1Nc1ncc2c(n1)N(C(C)C)CCC(=O)N2C` (stereo not shown) [Example 286, N-(4-dimethylaminocyclohexyl)-3-ethoxy-4-[(6-methyl-5-oxo-2-propan-2-yl-2,6,9,11-tetrazabicyclo[5.4.0]undeca-7,9,11-trien-10-yl)amino]benzamide]: below 30 µM.
The same measure, in the same setting: to `CCOc1cc(C(=O)NC2CCN(C)CC2)c(F)cc1Nc1ncc2c(n1)N(C(C)C)CCC(=O)N2C` [Example 287, 5-ethoxy-2-fluoro-4-[(6-methyl-5-oxo-2-propan-2-yl-2,6,9,11-tetrazabicyclo[5.4.0]undeca-7,9,11-trien-10-yl)amino]-N-(1-methyl-4-piperidyl)benzamide] belongs below 30 µM.
On the same count and under the same terms, next, `CC(C)N1CC(C)(C)C(=O)N(C)c2cnc(Nc3cc(F)c(C(=O)NC4CCN(C)CC4)cc3Cl)nc21` [Example 289, 5-chloro-2-fluoro-N-(1-methyl-4-piperidyl)-4-[(4,4,6-trimethyl-5-oxo-2-propan-2-yl-2,6,9,11-tetrazabicyclo[5.4.0]undeca-7,9,11-trien-10-yl)amino]benzamide]: below 1 µM; `CCN1CCC(NC(=O)c2cc(Cl)c(Nc3ncc4c(n3)N(C(C)C)CC(C)(C)C(=O)N4C)cc2F)CC1` [Example 290, 5-chloro-N-(1-ethyl-4-piperidyl)-2-fluoro-4-[(4,4,6-trimethyl-5-oxo-2-propan-2-yl-2,6,9,11-tetrazabicyclo[5.4.0]undeca-7,9,11-trien-10-yl)amino]benzamide]: below 1 µM.
With `CC(C)N1CC(C)(C)C(=O)N(C)c2cnc(Nc3cc(F)c(C(=O)NC4CCC(N(C)C)CC4)cc3Cl)nc21` (stereo not shown) [Example 291, 5-chloro-N-(4-dimethylaminocyclohexyl)-2-fluoro-4-[(4,4,6-trimethyl-5-oxo-2-propan-2-yl-2,6,9,11-tetrazabicyclo[5.4.0]undeca-7,9,11-trien-10-yl)amino]benzamide], the half-inhibitory concentration (IC50) was below 0.3 µM.
On to `COc1cc(C(=O)N[C@@H]2CCN(C)C2)c(F)cc1Nc1ncc2c(n1)N(C(C)C)CC(C)(C)C(=O)N2C` [Example 292, 2-fluoro-5-methoxy-N-[(3R)-1-methylpyrrolidin-3-yl]-4-[(4,4,6-trimethyl-5-oxo-2-propan-2-yl-2,6,9,11-tetrazabicyclo[5.4.0]undeca-7,9,11-trien-10-yl)amino]benzamide], for which the IC50 was below 0.3 µM.
Still for that read-out and setting: to `CCOc1cc(C(=O)N[C@@H]2CCN(C)C2)ccc1Nc1ncc2c(n1)N(C(C)C)CC(C)(C)C(=O)N2C` [Example 293, 3-ethoxy-N-[(3R)-1-methylpyrrolidin-3-yl]-4-[(4,4,6-trimethyl-5-oxo-2-propan-2-yl-2,6,9,11-tetrazabicyclo[5.4.0]undeca-7,9,11-trien-10-yl)amino]benzamide] belongs below 1 µM; to `CCOc1cc(C(=O)NC2CCC(N(C)C)CC2)ccc1Nc1ncc2c(n1)N(C(C)C)CC(C)(C)C(=O)N2C` (stereo not shown) [Example 294, N-(4-dimethylaminocyclohexyl)-3-ethoxy-4-[(4,4,6-trimethyl-5-oxo-2-propan-2-yl-2,6,9,11-tetrazabicyclo[5.4.0]undeca-7,9,11-trien-10-yl)amino]benzamide], below 1 µM; to `CCOc1cc(C(=O)NC2CCN(C)CC2)c(F)cc1Nc1ncc2c(n1)N(C(C)C)CC(C)(C)C(=O)N2C` [Example 296, 5-ethoxy-2-fluoro-N-(1-methyl-4-piperidyl)-4-[(4,4,6-trimethyl-5-oxo-2-propan-2-yl-2,6,9,11-tetrazabicyclo[5.4.0]undeca-7,9,11-trien-10-yl)amino]benzamide], below 30 µM.
Still for that read-out and setting: to `CCOc1cc(C(=O)N[C@@H]2CCN(C)C2)c(F)cc1Nc1ncc2c(n1)N(C(C)C)CC(C)(C)C(=O)N2C` [Example 297, 5-ethoxy-2-fluoro-N-[(3R)-1-methylpyrrolidin-3-yl]-4-[(4,4,6-trimethyl-5-oxo-2-propan-2-yl-2,6,9,11-tetrazabicyclo[5.4.0]undeca-7,9,11-trien-10-yl)amino]benzamide] belongs below 30 µM; to `COc1cc(C(=O)N[C@@H]2CCN(C)C2)ccc1Nc1ncc2c(n1)N(C(C)C)CC(C)(C)C(=O)N2C` [Example 299, 3-methoxy-N-[(3R)-1-methylpyrrolidin-3-yl]-4-[(4,4,6-trimethyl-5-oxo-2-propan-2-yl-2,6,9,11-tetrazabicyclo[5.4.0]undeca-7,9,11-trien-10-yl)amino]benzamide], below 0.3 µM.

Staying with this test, now noted: HT-29, HT29 cells, 24 h, read-out: IC50 (cellular assay, phosphohistone H3).
In the case of `CN1CCC(NC(=O)c2ccc(Nc3ncc4c(n3)N(C3CCCC3)CCC(=O)N4C)cc2)CC1` [Example 2, 4-[(2-cyclopentyl-6-methyl-5-oxo-2,6,9,11-tetrazabicyclo[5.4.0]undeca-8,10,12-trien-10-yl)amino]-N-(1-methyl-4-piperidyl)benzamide], the IC50 is below 0.3 µM.
